Patent US10287615B2, “Sophorolactone production” (ECOVER CO-ORDINATION CENTER N.V., priority 2011, dated 2019)

Legend:
[1] = Static surface tension, pending drop method on a Krüss DSA100 tensiometer; assay type: physicochemical; conditions: water 71.26
Experimental: The lactone obtained in Example 10 was partially hydrolysed in degrees ranging from 0 to 2 equivalents using potassium hydroxide. Partial alkaline hydrolysis in this context implies that less than 3 mol KOH were added per mol lactone. As a consequence only part of the 3 ester bonds, i.e. the lactonic bond and the two acetyl ester bonds, was hydrolysed and a mixture of various sophorolipids formed.
The static surface tension of the partial hydrolysates obtained in the above described experiment was measured according to the pending drop method on a Krüss DSA100 tensiometer.

[2] = Stain removal efficacy in automatic dishwashing on soil plates; conditions: for average Rw (Y reflection value for washed): 1.4% surfactant in base formula, 50° C. eco; for soil removal: Rw minus Rs
Text: A sophorolipid lactone sample obtained from the experiment described in Example 8 was centrifuged, spread out on Torck paper and allowed to air dry. The resulting solid was crushed with a coffee mill to a fine powder and dried further with compressed air to >98 wt %. This powder was compared as to its efficiency in automatic dishwashing versus a low foaming alkylpolyglucoside, in particular Simulsol AS48, available from Seppic SA, at equal active matter content. […] 20 gram of the base formula was dosed in a ZDF211 dishwasher. Program D 50° C. eco was run.
In the automatic dishwasher 7 types of soil plates (available from CFT, Vlaardingen, The Netherlands) mounted in a stainless steel holding frame were inserted.

[3] = Storage stability of non-aqueous sophorolactone solution, HPLC-ELSD; assay type: physicochemical; conditions: for acid sophorolipid peak (hydrolysis of lactone), share of the total peak area: 10 g sophorolactone in 90 g ethyllactate or isoamyl lactate
Experimental: Both samples were split in 50 ml samples and stored at 4° C. and at 40° C. respectively. After 2 months of storage they were analyzed with HPLC-ELSD. The results are as illustrated by the chromatograms depicted in FIG. 7 and FIG. 8. After 2 months of storage at either 4° C., result depicted in FIG. 7, or 40° C., result depicted in FIG. 8, of this non-aqueous sophorolactone solution only a negligible hydrolysis of lactone material occurred as evidenced by an acid sophorolipid peak appearing at 30.5 min in the grey overlay graph. This peak represents less than 1% of the total peak area.

With sophorolactone the Surface tension ([1]; Conc. 10 ppm) was 71.00 mN/m, the Surface tension ([1]; Conc. 50 ppm) was 66.21 mN/m and the Surface tension ([1]; Conc. 100 ppm) was 63.02 mN/m. The Surface tension ([1]; Conc. 250 ppm) was 47.67 mN/m, the Surface tension ([1]; Conc. 1000 ppm) was 36.69 mN/m and the Surface tension ([1]; Conc. 2000 ppm) was 36.26 mN/m. For the same substance, the Surface tension ([1]; Conc. 5000 ppm) was 35.85 mN/m, the Surface tension ([1]; Conc. 10000 ppm) was 35.33 mN/m and the Surface tension ([1]; Conc. 25000 ppm) was 35.54 mN/m. The Surface tension ([1]; Conc. 50000 ppm) was 35.14 mN/m, the “soil removal rates, overall comparison” value ([2]; automatic dishwashing, equal active matter content, alkaline pH of about 9.8) was “superior to Simulsol AS48” and the “average Rw (Y reflection value for washed)” value (“average Rw” for short) ([2]; stain Cheese DM06) was 41.9. For the same substance, the soil removal ([2]; stain Cheese DM06) was 16.9, the “average Rw” value ([2]; stain Chocolate DM75) was 24.9 and the soil removal ([2]; stain Chocolate DM75) was 7.1. For the same substance, the “average Rw” value ([2]; stain Coffee DM81) was 77.5, the soil removal ([2]; stain Coffee DM81) was 7.3 and the “average Rw” value ([2]; stain Egg yolk/milk DM31) was 52.0. For the same substance, the soil removal ([2]; stain Egg yolk/milk DM31) was 6.8, the “average Rw” value ([2]; stain Mix starch DM77) was 37.6 and the soil removal ([2]; stain Mix starch DM77) was 1.6. For the same substance, the “average Rw” value ([2]; stain Red wine DM51) was 72.4, the soil removal ([2]; stain Red wine DM51) was 17.1 and the “average Rw” value ([2]; stain Tea DM11) was 75.7. The soil removal ([2]; stain Tea DM11) was 14.6, the “storage stability of non-aqueous solution (chromatogram overlay)” value ([3]; 2 months of storage at 40° C.) was “storage stable” and the “acid sophorolipid peak (hydrolysis of lactone), share of the total peak area” value ([3]; 2 months of storage at 4° C.) was “less than 1%”. For the same substance, the “acid sophorolipid peak (hydrolysis of lactone), share of the total peak area” value ([3]; 2 months of storage at 40° C.) was “less than 1%” and the “storage stability of non-aqueous solution (chromatogram overlay)” value ([3]; storage at 4° C. for 2 months) was “storage stable”.
